Laboratory results reported in US20260021152A1, “USE OF MALE FLOWER EXTRACT OF EUCOMMIA ULMOIDES OLIVER IN PREPARATION OF FOOD OR MEDICAMENT FOR RESISTING MUSCLE AGING” (ZHEJIANG UNIVERSITY, priority 2022, published 2026).

What follows are compounds tested on mt-Keima HEK 293T cells (assay: In vitro activation of mitophagy in mt-Keima 293T cells). Details: 10 μM, 6 hours.
Format: cell-based, human
Description: The specific method was as follows:
293T cells were cultured and passaged in the normal way, and inoculated in a 24-well plate, with 0.5 mL inoculated in each well. The cell density was 5×10^4 cells/mL, and a total of 2.5×10^4 cells were inoculated. Before inoculation, the cells in the centrifuge tube were pipetted evenly to ensure that the cell density at the beginning and at the end was consistent. After standing for 5-10 minutes, the plate was gently placed in the incubator. After overnight incubation, the original complete medium was removed, and 0.3 mL of a complete medium solution containing 1.5×10^5 TU lentiviruses was added to each well. After incubation at 37° C. for 8 hours, 200 μL of the complete medium was added to each well. After 24 hours of transfection, the medium was replaced until the cell density reached 80-90%, and the cells were digested and passaged a T25 flask. […] The successfully transfected cells were screened using a complete medium containing 0.5 μg/mL of a puromycin hydrochloride solution, and maintained with 0.25 μg/mL of the solution.
The confocal dishes were inoculated with 1 mL per dish, with a cell density of 2×10^5 cells/mL. After standing for 5-10 minutes, the dishes were gently placed in the incubator. When the cells grew to 30-40%, the drug was administered. After treating mt-Keima cells with 10 μM different iridoid monomer ingredients from the male flowers of Eucommia ulmoides Oliver or 10 μM CCCP for 6 hours, the medium was replaced with a fresh complete medium, and then live-cell confocal observation was performed directly. Confocal parameters: the excitation wavelengths were 440 nm and 596 nm each, and the emission wavelength was 620 nm, observed by a 40× water immersion objective.
With “carbonyl cyanide ester-3-chlorophenylhydrazone [CCCP]” the mitophagy activation was “significantly induced the occurrence of mitophagy”. `CC(=O)OCC1=C[C@@H]2OC(=O)C3=CO[C@@H](O[C@@H]4O[C@H](CO)[C@@H](O)[C@H](O)[C@H]4O)[C@H]1[C@@H]32` [asperuloside] was tested, and the mitophagy activation was “had mitophagy-activating activity”. With `OCC1=C[C@@H](O)[C@@H]2C=CO[C@@H](O[C@@H]3O[C@H](CO)[C@@H](O)[C@H](O)[C@H]3O)[C@H]12` [aucubin] the mitophagy activation was “have mitophagy-activating activity”. In the case of `O=C(O)C1=CO[C@@H](O[C@@H]2O[C@H](CO)[C@@H](O)[C@H](O)[C@H]2O)[C@@H]2C(CO)=CC[C@H]12` [geniposidic acid], the mitophagy activation is reported as “have mitophagy-activating activity”. In the case of `COC(=O)C1=CO[C@@H](O[C@@H]2O[C@H](CO)[C@@H](O)[C@H](O)[C@H]2O)[C@@H]2C(CO)=CC[C@H]12` [geniposide], the mitophagy activation is reported as “have mitophagy-activating activity”.

Same assay, conditions: 10 μM, 6 hours, same concentration
`CC(=O)OCC1=C[C@@H]2OC(=O)C3=CO[C@@H](O[C@@H]4O[C@H](CO)[C@@H](O)[C@H](O)[C@H]4O)[C@H]1[C@@H]32` [asperuloside] was tested, and the “comparison of the average fluorescence density ratio” value was “better than that of the other three monomer ingredients”.
